# Reference: publication PMC10061512 (ACS Omega, 2023)
# Values joined by “and” are separate entries in the source; they are usually repeats but may differ in a detail not shown here. Equal values may be shown once.
# What was measured:
# hBACE-1 = hBACE-1 (Homo sapiens, UniProt P56817); assay: biochemical
# EeAChE = EeAChE (Electrophorus electricus, UniProt O42275); assay: AChE inhibition and enzyme kinetics, Ellman assay; format: biochemical, electric eel; conditions: IC50 (μM) ± SD EeAChE, Ellman assay
# eqBChE = eqBChE (Equus caballus, UniProt P81908); assay: BChE inhibition and enzyme kinetics, Ellman assay; format: biochemical, equine
# amyloid β 1–42 peptide = amyloid β 1–42 peptide (Homo sapiens, UniProt P05067); assay: Aβ-42 self-aggregation inhibition assay; format: biochemical; conditions: read-out: inhibition of self-aggregation of Aβ1–42 monomers
# amyloid β 1–42 peptide, sequence (P05067 672-713): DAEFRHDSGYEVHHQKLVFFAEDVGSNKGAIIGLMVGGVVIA
# eqBChE, sequence (P81908 whole entry): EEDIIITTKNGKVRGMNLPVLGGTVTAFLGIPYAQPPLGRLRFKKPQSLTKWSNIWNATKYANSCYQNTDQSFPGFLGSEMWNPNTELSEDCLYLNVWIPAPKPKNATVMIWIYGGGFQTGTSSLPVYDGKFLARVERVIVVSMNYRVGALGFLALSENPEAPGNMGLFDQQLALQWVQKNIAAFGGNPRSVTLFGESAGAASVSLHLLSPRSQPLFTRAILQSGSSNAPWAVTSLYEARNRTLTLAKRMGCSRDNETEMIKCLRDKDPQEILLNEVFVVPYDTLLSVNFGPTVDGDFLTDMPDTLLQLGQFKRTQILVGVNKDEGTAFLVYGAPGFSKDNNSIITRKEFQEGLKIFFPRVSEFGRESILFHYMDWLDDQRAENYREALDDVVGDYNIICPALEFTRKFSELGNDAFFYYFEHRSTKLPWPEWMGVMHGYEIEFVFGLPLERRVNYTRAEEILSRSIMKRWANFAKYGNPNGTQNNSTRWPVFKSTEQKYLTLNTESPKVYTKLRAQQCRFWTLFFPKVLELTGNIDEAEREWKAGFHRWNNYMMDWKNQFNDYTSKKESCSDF
# EeAChE, sequence (O42275 24-633): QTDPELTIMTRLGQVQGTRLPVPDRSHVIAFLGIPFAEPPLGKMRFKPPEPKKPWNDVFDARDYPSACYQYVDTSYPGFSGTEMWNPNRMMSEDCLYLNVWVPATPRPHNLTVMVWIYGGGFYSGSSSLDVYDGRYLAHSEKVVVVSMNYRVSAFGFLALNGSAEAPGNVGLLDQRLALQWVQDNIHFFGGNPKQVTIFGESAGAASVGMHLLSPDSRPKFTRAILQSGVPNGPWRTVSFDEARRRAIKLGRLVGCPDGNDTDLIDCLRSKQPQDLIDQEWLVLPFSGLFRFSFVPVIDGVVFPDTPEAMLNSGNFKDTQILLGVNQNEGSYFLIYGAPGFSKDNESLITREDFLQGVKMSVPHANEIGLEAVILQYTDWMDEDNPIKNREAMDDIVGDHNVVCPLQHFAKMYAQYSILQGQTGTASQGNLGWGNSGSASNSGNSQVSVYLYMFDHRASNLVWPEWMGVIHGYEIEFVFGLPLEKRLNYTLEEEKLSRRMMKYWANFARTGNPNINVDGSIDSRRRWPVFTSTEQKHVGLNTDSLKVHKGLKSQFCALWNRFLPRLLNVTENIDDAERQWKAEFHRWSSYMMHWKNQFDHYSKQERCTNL
# hBACE-1, sequence (P56817 46-501): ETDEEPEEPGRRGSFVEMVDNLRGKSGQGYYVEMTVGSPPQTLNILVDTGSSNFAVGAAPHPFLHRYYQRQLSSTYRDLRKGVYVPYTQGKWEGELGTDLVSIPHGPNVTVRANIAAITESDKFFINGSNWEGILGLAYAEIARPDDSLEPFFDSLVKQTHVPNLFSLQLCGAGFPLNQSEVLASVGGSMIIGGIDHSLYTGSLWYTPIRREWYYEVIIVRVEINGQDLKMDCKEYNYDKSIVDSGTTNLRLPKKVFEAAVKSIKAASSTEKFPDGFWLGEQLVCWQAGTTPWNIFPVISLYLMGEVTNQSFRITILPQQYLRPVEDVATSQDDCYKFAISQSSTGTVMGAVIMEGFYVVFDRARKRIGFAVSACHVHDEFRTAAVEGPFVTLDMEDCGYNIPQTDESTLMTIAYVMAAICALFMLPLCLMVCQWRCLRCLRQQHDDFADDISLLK
Compound,IC50 (hBACE-1),IC50 (EeAChE),IC50 (eqBChE),inhibition at 10 µM (amyloid β 1–42 peptide)
"O=c1cc(OCc2cn(Cc3ccccc3)nn2)c2ccccc2o1 [8a, 4-((1-Benzyl-1H-1,2,3-triazol-4-yl)methoxy)-2H-chromen-2-one]",72.9 ± 2.4 µM,151 ± 3.14 µM,212 ± 2.55 µM,–
"O=c1cc(OCc2cn(Cc3ccccc3Cl)nn2)c2ccccc2o1 [8b, 4-((1-(2-Chlorobenzyl)-1H-1,2,3-triazol-4-yl)methoxy)-2H-chromen-2-one]",186.6 ± 1.21 µM,68.7 ± 0.71 µM,42.2 ± 0.78 µM,–
"O=c1cc(OCc2cn(Cc3cccc(Cl)c3)nn2)c2ccccc2o1 [8c, 4-((1-(3-Chlorobenzyl)-1H-1,2,3-triazol-4-yl)methoxy)-2H-chromen-2-one]",24.8 ± 1.49 µM,62.6 ± 2.4 µM,61.9 ± 3.66 µM,–
"O=c1cc(OCc2cn(Cc3c(Cl)cccc3Cl)nn2)c2ccccc2o1 [8d, 4-((1-(2,6-Dichlorobenzyl)-1H-1,2,3-triazol-4-yl)methoxy)-2H-chromen-2-one]",106 ± 1.38 µM,59.4 ± 2.71 µM,40.3 ± 0.93 µM,–
"O=c1cc(OCc2cn(Cc3ccccc3F)nn2)c2ccccc2o1 [8e, 4-((1-(2-Fluorobenzyl)-1H-1,2,3-triazol-4-yl)methoxy)-2H-chromen-2-one]",111.2 ± 0.63 µM,89.2 ± 1.88 µM,62.3 ± 1.2 µM,–
"O=c1cc(OCc2cn(Cc3cccc(F)c3)nn2)c2ccccc2o1 [8f, 4-((1-(3-Fluorobenzyl)-1H-1,2,3-triazol-4-yl)methoxy)-2H-chromen-2-one]",22.3 ± 1.54 µM,232.8 ± 2.31 µM,236 ± 3.6 µM,–
"O=c1cc(OCc2cn(Cc3ccc(F)cc3)nn2)c2ccccc2o1 [8g, 4-((1-(4-Fluorobenzyl)-1H-1,2,3-triazol-4-yl)methoxy)-2H-chromen-2-one]",24.2 ± 1.98 µM,194 ± 2.19 µM,249 ± 3.1 µM,–
"O=c1cc(OCc2cn(Cc3c(F)cccc3F)nn2)c2ccccc2o1 [8h, 4-((1-(2,6-Difluorobenzyl)-1H-1,2,3-triazol-4-yl)methoxy)-2H-chromen-2-one]",135 ± 1.9 µM,73.89 ± 0.63 µM,66.7 ± 1.37 µM,–
"O=c1cc(OCc2cn(Cc3ccccc3C(F)(F)F)nn2)c2ccccc2o1 [8i, 4-((1-(2-(Trifluoromethyl)benzyl)-1H-1,2,3-triazol-4-yl)methoxy)-2H-chromen-2-one]",10.2 ± 0.79 µM,4.83 ± 0.11 µM,7.04 ± 0.77 µM,–
"O=c1cc(OCc2cn(Cc3ccc(C(F)(F)F)cc3)nn2)c2ccccc2o1 [8j, 4-((1-(4-(Trifluoromethyl)benzyl)-1H-1,2,3-triazol-4-yl)methoxy)-2H-chromen-2-one]",19.5 ± 0.66 µM,23.3 ± 2.86 µM,209 ± 2.11 µM,–
"O=c1cc(OCc2cn(Cc3ccccc3OC(F)(F)F)nn2)c2ccccc2o1 [8k, 4-((1-(2-(Trifluoromethoxy)benzyl)-1H-1,2,3-triazol-4-yl)methoxy)-2H-chromen-2-one]",18 ± 1.59 µM,9.13 ± 0.73 µM,9.95 ± 0.89 µM,–
"O=c1cc(OCc2cn(Cc3ccc(OC(F)(F)F)cc3)nn2)c2ccccc2o1 [8l, 4-((1-(4-(Trifluoromethoxy)benzyl)-1H-1,2,3-triazol-4-yl)methoxy)-2H-chromen-2-one]",132.9 ± 1.08 µM,45.4 ± 1.4 µM,158 ± 1.98 µM,–
"Cc1ccccc1Cn1cc(COc2cc(=O)oc3ccccc23)nn1 [8m, 4-((1-(2-Methylbenzyl)-1H-1,2,3-triazol-4-yl)methoxy)-2H-chromen-2-one]",162 ± 1.85 µM,210.7 ± 1.83 µM,172 ± 1.98 µM,–
"COc1cccc(Cn2cc(COc3cc(=O)oc4ccccc34)nn2)c1 [8n, 4-((1-(3-Methoxybenzyl)-1H-1,2,3-triazol-4-yl)methoxy)-2H-chromen-2-one]",126 ± 4.18 µM,11.4 ± 1.16 µM,140 ± 6.25 µM,–
"COc1cc(Cn2cc(COc3cc(=O)oc4ccccc34)nn2)cc(OC)c1 [8o, 4-((1-(3,5-Dimethoxybenzyl)-1H-1,2,3-triazol-4-yl)methoxy)-2H-chromen-2-one]",9.79 ± 1.36 µM,2.76 ± 0.04 µM,3.3 ± 0.01 µM,–
"O=c1cc(OCc2cn(Cc3ccc([N+](=O)[O-])cc3)nn2)c2ccccc2o1 [8p, 4-((1-(4-Nitrobenzyl)-1H-1,2,3-triazol-4-yl)methoxy)-2H-chromen-2-one]",156 ± 1.09 µM,200.4 ± 0.85 µM,220 ± 3.04 µM,–
"COc1cccc(Cn2cc(COc3ccc4ccc(=O)oc4c3C(C)=O)nn2)c1 [10a, 8-Acetyl-7-((1-(3-methoxybenzyl)-1H-1,2,3-triazol-4-yl)methoxy)-2H-chromen-2-one]",119 ± 2.49 µM,8.36 ± 1.29 µM,7.4 ± 0.94 µM,–
"CC(=O)c1c(OCc2cn(Cc3ccccc3C(F)(F)F)nn2)ccc2ccc(=O)oc12 [10c, 8-Acetyl-7-((1-(2-(trifluoromethyl)benzyl)-1H-1,2,3-triazol-4-yl)methoxy)-2H-chromen-2-one]",139 ± 1.47 µM,173 ± 1.89 µM,44.6 ± 1.84 µM,–
"CC(=O)c1c(OCc2cn(Cc3ccccc3OC(F)(F)F)nn2)ccc2ccc(=O)oc12 [10d, 8-Acetyl-7-((1-(2-(trifluoromethoxy)benzyl)-1H-1,2,3-triazol-4-yl)methoxy)-2H-chromen-2-one]",142 ± 1.59 µM,139 ± 1.64 µM,170 ± 1.76 µM,–

Compound,IC50 (hBACE-1),IC50 (EeAChE),IC50 (eqBChE),inhibition at 10 µM (amyloid β 1–42 peptide)
"COc1cccc(Cn2cc(COc3cc4oc(=O)cc(C)c4cc3OCc3cn(Cc4cccc(OC)c4)nn3)nn2)c1 [13a, 6,7-Bis((1-(3-methoxybenzyl)-1H-1,2,3-triazol-4-yl)methoxy)-4-methyl-2H-chromen-2-one]",129 ± 1.49 µM,130.7 ± 0.45 µM,51.7 ± 1.42 µM,–
"COc1cc(Cn2cc(COc3cc4oc(=O)cc(C)c4cc3OCc3cn(Cc4cc(OC)cc(OC)c4)nn3)nn2)cc(OC)c1 [13b, 6,7-Bis((1-(3,5-dimethoxybenzyl)-1H-1,2,3-triazol-4-yl)methoxy)-4-methyl-2H-chromen-2-one]",115 ± 3.86 µM,168 ± 6.7 µM,4.7 ± 0.67 µM,–
"Cc1cc(=O)oc2cc(OCc3cn(Cc4ccccc4C(F)(F)F)nn3)c(OCc3cn(Cc4ccccc4C(F)(F)F)nn3)cc12 [13c, 4-Methyl-6,7-bis((1-(2-(trifluoromethyl)benzyl)-1H-1,2,3-triazol-4-yl)methoxy)-2H-chromen-2-one]",139.4 ± 1 µM,154.7 ± 1.42 µM,82.5 ± 1.41 µM,–
"Cc1cc(=O)oc2cc(OCc3cn(Cc4ccccc4OC(F)(F)F)nn3)c(OCc3cn(Cc4ccccc4OC(F)(F)F)nn3)cc12 [13d, 4-Methyl-6,7-bis((1-(2-(trifluoromethoxy)benzyl)-1H-1,2,3-triazol-4-yl)methoxy)-2H-chromen-2-one]",20.7 ± 0.93 µM,176 ± 10.2 µM,–,–
"COc1cccc(Cn2cc(COc3cc4oc(=O)cc(C)c4cc3OC)nn2)c1 [16a, 6-Methoxy-7-((1-(3-methoxybenzyl)-1H-1,2,3-triazol-4-yl)methoxy)-4-methyl-2H-chromen-2-one]",138.4 ± 1.02 µM,164 ± 1.84 µM,95.8 ± 1.12 µM,–
"COc1cc(Cn2cc(COc3cc4oc(=O)cc(C)c4cc3OC)nn2)cc(OC)c1 [16b, 7-((1-(3,5-Dimethoxybenzyl)-1H-1,2,3-triazol-4-yl)methoxy)-6-methoxy-4-methyl-2H-chromen-2-one]",9.06 ± 0.88 µM,151 ± 5.05 µM,191.2 ± 1.13 µM,–
"COc1cc2c(C)cc(=O)oc2cc1OCc1cn(Cc2ccccc2C(F)(F)F)nn1 [16c, 6-Methoxy-4-methyl-7-((1-(2-(trifluoromethyl)benzyl)-1H-1,2,3-triazol-4-yl)methoxy)-2H-chromen-2-one]",156.1 ± 1.42 µM,141.7 ± 0.89 µM,57.5 ± 1.42 µM,–
"COc1cc2c(C)cc(=O)oc2cc1OCc1cn(Cc2ccccc2OC(F)(F)F)nn1 [16d, 6-Methoxy-4-methyl-7-((1-(2-(trifluoromethoxy)benzyl)-1H-1,2,3-triazol-4-yl)methoxy)-2H-chromen-2-one]",167.6 ± 1.4 µM,167 ± 2.45 µM,141 ± 0.6 µM,–
"COc1cccc(Cn2cc(COc3ccc4ccc(=O)oc4c3)nn2)c1 [19a, 7-((1-(3-Methoxybenzyl)-1H-1,2,3-triazol-4-yl)methoxy)-2H-chromen-2-one]",126 ± 3.92 µM,3.6 µM and 3.62 µM,2.8 ± 0.22 µM,–
"COc1cc(Cn2cc(COc3ccc4ccc(=O)oc4c3)nn2)cc(OC)c1 [19b, 7-((1-(3,5-Dimethoxybenzyl)-1H-1,2,3-triazol-4-yl)methoxy)-2H-chromen-2-one]",132 ± 2.02 µM,59.7 ± 0.62 µM,63.2 ± 2.44 µM,–
"O=c1ccc2ccc(OCc3cn(Cc4ccccc4C(F)(F)F)nn3)cc2o1 [19c, 7-((1-(2-(Trifluoromethyl)benzyl)-1H-1,2,3-triazol-4-yl)methoxy)-2H-chromen-2-one]",17.7 ± 0.65 µM,20.6 ± 0.95 µM,77.3 ± 6.38 µM,–
"O=c1ccc2ccc(OCc3cn(Cc4ccccc4OC(F)(F)F)nn3)cc2o1 [19d, 7-((1-(2-(Trifluoromethoxy)benzyl)-1H-1,2,3-triazol-4-yl)methoxy)-2H-chromen-2-one]",172.8 ± 0.66 µM,52.54 ± 0.4 µM,97.2 ± 1.29 µM,–
"O=c1cc(O)c2ccccc2o1 [compound 5, 4-hydroxycoumarin]",169 ± 7.67 µM,139 ± 1.85 µM,167 ± 5.63 µM,–
"Cc1cc(=O)oc2cc(O)c(O)cc12 [compound 11, 4-methyl-6,7-dihydroxycoumarin]",105 ± 3.48 µM,68.1 ± 4.05 µM,148 ± 5.46 µM,–
"COc1cc2c(C)cc(=O)oc2cc1O [compound 14, 7-Hydroxy-6-methoxy-4-methyl-2H-chromen-2-one]",91.1 ± 2.41 µM,89.1 ± 3.51 µM,146 ± 4.91 µM,–
"O=c1ccc2ccc(O)cc2o1 [compound 17, 7-hydroxycoumarin]",175 ± 4.37 µM,–,–,–
"C[n+]1c2ccccc2cc2[n-]c3ccccc3c21 [cryptolepine, reference compound]",–,0.33 ± 0.2 µM,0.61 ± 0.3 µM,–
"COc1cc(/C=C/C(=O)CC(=O)/C=C/c2ccc(O)c(OC)c2)ccc1O [curcumin, reference compound]",–,–,–,81%
